We go through 39 compounds from ChEMBL document CHEMBL3727342, “Compounds and methods for kinase modulation, and indications therefor” (2012).

The target of experiment [1] is Serine/threonine-protein kinase B-raf (Homo sapiens, UniProt P15056, V600E). Briefly: Inhibition of B-raf V600E mutant (unknown origin) expressed in Sf9 cells using biotin-MEK1substrate incubated for 1 hr.
Experiment [2] has as its target Vascular endothelial growth factor receptor 2 (Homo sapiens, UniProt P35968). Briefly: Inhibition of KDR (unknown origin) by FRET assay.
Experiment [3] addresses Mast/stem cell growth factor receptor Kit (Homo sapiens, UniProt P10721). The experiment can be described thus: Inhibition of Kit (unknown origin) expressed in Escherichia coli.
The target of experiment [4] is RAF proto-oncogene serine/threonine-protein kinase (Homo sapiens, UniProt P04049). The experiment can be described thus: Inhibition of human C-raf using biotin-MEK1 substrate incubated for 1 hr.
Experiment [5] has as its target Serine/threonine-protein kinase B-raf (Homo sapiens, UniProt P15056). Briefly: Inhibition of N-terminal GST-tagged human recombinant B-Raf (416 to end residues) using biotin-MEK1 substrate incubated for 1 hr.
In experiment [6] the target is Proto-oncogene tyrosine-protein kinase Src (Homo sapiens, UniProt P12931). Briefly: Inhibition of Src (unknown origin) expressed in Escherichia coli using biotin-(E4Y)3 substrate.
The target in experiment [7] is T1, Serine/threonine-protein kinase A-Raf (Homo sapiens, UniProt P10398).
T1 sequence (P10398 whole entry): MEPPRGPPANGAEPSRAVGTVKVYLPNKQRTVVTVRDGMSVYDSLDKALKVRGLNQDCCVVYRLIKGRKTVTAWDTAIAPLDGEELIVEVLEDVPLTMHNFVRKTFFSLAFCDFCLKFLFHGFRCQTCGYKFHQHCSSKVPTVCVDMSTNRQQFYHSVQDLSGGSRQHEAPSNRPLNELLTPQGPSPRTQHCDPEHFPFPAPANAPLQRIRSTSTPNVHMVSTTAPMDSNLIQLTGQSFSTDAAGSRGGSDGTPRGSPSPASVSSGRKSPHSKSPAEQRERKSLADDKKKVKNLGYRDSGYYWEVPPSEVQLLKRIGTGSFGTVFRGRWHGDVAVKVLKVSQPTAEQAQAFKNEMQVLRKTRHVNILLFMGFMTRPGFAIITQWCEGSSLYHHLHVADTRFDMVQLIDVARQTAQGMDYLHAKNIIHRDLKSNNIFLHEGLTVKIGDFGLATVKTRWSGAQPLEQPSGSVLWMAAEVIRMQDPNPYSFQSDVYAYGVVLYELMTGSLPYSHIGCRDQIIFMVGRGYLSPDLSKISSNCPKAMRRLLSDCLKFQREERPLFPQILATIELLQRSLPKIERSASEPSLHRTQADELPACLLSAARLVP
The experiment can be described thus: Inhibition of A-Raf (unknown origin).

For experiment [8], the target named is Macrophage colony-stimulating factor 1 receptor (Homo sapiens, UniProt P07333). The experiment can be described thus: Inhibition of Fms (unknown origin).

A word on the IC50: it is the midpoint of a concentration-inhibition curve.

Sequence of Serine/threonine-protein kinase B-raf (Homo sapiens, UniProt P15056) (P15056 whole entry): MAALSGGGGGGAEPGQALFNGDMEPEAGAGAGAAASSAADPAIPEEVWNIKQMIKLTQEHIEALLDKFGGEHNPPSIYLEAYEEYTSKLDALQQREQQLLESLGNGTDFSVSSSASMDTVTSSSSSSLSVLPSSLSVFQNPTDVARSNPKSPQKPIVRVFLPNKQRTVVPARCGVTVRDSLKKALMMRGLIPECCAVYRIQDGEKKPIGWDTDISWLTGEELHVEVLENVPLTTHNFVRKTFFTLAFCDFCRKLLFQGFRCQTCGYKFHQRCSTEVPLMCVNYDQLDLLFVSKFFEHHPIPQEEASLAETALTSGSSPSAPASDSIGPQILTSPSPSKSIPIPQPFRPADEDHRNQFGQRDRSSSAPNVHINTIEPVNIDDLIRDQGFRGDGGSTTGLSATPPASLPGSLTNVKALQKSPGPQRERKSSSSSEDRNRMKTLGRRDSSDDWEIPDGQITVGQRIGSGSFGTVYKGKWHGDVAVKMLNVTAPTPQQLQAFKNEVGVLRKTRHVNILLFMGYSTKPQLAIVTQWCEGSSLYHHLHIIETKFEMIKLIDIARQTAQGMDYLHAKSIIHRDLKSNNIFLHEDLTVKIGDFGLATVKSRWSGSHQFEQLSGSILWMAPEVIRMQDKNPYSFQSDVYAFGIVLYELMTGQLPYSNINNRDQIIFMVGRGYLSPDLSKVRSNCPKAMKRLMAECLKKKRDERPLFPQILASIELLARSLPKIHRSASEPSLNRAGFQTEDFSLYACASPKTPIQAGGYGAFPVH
Sequence of Vascular endothelial growth factor receptor 2 (P35968 whole entry): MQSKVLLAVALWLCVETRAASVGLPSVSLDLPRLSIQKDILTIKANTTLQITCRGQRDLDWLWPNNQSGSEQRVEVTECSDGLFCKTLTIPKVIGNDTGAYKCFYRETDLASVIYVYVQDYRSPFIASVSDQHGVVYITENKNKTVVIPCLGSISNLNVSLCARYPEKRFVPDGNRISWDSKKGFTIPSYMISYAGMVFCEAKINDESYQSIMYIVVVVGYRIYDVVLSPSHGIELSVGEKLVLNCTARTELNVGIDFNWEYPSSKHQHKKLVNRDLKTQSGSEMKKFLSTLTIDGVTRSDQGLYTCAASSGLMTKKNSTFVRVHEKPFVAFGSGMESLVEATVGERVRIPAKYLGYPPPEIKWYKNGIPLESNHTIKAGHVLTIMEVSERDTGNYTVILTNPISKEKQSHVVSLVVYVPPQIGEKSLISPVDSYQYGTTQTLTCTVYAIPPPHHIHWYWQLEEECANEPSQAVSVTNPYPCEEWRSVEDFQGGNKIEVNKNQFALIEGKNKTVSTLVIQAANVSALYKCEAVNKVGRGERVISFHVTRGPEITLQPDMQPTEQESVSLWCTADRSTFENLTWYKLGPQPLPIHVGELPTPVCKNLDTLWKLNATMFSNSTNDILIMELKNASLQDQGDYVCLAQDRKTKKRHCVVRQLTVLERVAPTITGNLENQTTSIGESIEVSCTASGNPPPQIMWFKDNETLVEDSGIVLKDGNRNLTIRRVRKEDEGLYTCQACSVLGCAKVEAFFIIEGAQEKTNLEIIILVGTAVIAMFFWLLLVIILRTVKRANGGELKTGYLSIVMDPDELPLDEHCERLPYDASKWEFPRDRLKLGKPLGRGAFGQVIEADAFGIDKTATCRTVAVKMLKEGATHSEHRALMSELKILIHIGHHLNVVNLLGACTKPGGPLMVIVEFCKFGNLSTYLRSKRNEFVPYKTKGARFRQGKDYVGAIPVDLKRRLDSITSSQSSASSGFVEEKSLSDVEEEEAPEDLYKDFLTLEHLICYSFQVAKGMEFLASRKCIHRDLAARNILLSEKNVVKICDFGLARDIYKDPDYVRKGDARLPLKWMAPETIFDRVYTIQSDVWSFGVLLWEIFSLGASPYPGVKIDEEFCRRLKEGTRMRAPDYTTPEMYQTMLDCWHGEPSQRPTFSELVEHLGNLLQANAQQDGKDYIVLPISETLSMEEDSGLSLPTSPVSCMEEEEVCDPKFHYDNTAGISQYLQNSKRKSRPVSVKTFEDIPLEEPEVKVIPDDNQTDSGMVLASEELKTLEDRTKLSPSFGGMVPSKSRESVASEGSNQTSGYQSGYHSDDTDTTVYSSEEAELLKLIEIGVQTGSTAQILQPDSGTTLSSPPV
Sequence of Serine/threonine-protein kinase B-raf (Homo sapiens, UniProt P15056, V600E) (P15056 2-766 V600E limits assumed): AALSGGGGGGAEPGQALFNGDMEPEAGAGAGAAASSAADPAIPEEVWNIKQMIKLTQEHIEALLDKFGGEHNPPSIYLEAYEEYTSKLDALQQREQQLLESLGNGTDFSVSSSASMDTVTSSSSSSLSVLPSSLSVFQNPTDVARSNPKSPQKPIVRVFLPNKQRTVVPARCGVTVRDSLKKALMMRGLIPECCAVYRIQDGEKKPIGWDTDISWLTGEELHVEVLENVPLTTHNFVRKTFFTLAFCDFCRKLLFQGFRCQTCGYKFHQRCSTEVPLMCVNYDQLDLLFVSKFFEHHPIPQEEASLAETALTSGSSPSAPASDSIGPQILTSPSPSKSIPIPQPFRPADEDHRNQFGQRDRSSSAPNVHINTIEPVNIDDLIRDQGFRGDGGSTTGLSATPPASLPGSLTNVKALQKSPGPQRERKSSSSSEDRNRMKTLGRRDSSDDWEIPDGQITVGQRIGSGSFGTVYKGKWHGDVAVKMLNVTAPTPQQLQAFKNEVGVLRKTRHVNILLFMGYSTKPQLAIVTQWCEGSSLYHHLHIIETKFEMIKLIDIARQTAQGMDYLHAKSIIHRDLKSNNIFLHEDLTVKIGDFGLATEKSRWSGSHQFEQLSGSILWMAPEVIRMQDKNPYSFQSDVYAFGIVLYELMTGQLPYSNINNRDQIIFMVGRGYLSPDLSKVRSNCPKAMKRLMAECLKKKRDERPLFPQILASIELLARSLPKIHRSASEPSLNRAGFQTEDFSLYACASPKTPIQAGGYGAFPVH
Sequence of Mast/stem cell growth factor receptor Kit (P10721 whole entry): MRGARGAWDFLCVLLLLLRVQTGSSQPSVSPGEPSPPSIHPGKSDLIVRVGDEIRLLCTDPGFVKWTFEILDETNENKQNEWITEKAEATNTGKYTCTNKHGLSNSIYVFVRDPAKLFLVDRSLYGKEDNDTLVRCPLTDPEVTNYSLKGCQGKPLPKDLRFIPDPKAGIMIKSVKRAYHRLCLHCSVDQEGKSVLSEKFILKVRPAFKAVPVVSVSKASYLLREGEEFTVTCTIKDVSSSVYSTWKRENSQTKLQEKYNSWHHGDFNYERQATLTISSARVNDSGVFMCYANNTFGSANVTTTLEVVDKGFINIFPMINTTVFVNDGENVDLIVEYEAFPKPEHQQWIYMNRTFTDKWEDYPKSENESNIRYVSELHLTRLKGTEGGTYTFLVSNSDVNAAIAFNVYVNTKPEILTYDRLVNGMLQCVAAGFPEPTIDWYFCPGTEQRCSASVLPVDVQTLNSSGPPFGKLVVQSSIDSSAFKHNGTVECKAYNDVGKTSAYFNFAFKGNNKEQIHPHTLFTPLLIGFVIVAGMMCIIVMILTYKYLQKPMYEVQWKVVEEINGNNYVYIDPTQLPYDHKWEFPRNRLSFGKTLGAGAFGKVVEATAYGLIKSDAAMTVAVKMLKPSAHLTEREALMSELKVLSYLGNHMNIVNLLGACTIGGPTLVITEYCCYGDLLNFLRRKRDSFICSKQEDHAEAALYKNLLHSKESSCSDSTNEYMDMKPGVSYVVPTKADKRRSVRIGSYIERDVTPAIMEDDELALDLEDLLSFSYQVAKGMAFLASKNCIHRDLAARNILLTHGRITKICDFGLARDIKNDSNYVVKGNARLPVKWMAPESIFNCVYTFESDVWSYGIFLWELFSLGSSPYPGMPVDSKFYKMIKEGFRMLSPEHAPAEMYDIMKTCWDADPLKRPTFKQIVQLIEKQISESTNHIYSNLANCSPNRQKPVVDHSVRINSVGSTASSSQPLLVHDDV
Sequence of RAF proto-oncogene serine/threonine-protein kinase (P04049 whole entry): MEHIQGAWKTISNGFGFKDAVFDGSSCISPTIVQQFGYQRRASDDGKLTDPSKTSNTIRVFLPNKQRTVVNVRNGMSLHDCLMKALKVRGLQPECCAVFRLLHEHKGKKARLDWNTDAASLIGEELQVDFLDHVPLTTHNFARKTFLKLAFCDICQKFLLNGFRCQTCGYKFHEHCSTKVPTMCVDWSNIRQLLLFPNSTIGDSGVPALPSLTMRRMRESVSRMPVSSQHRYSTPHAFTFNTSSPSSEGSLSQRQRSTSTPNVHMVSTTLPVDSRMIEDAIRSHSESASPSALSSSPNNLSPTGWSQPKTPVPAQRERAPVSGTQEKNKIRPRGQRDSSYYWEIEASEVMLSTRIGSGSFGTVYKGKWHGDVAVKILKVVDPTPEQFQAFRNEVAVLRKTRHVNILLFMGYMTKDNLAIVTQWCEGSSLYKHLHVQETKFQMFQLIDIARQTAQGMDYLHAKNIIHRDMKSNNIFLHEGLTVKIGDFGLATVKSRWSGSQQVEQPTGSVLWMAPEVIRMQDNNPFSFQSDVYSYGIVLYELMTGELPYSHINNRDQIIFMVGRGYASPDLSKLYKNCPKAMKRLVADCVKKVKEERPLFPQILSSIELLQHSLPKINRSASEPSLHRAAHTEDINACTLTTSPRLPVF
Sequence of Proto-oncogene tyrosine-protein kinase Src (P12931 2-536 limits assumed): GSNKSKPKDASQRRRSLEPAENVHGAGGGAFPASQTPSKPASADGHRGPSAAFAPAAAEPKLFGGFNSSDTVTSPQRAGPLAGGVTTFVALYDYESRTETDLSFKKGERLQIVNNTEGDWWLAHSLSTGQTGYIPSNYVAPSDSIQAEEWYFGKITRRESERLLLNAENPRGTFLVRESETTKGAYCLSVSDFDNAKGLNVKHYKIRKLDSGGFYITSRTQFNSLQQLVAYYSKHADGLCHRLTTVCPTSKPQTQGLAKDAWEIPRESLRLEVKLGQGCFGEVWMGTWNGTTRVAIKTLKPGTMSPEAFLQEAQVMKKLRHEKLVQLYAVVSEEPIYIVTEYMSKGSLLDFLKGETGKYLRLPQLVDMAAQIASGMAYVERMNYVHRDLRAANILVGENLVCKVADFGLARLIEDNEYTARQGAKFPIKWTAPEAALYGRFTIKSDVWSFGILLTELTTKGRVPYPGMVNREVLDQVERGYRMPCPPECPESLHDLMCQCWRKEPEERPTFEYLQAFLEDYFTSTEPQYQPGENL

In the case of `O=C(c1cccc(NS(=O)(=O)C2CCC2)c1F)c1c[nH]c2ncncc12`, the IC50 in experiment [1], in experiment [2] and in experiment [3] was at most 10 µM each time.

Consider `CN(C)S(=O)(=O)Nc1ccc(F)c(C(=O)c2c[nH]c3ncncc23)c1F`, for which the IC50 in experiment [1], in experiment [4] and in experiment [2] was at most 10 µM in each case.

As to `O=C(c1cccc(NS(=O)(=O)c2cc(F)ccc2F)c1F)c1c[nH]c2ncncc12`, the IC50 in experiment [5], in experiment [4], in experiment [2], in experiment [3] and in experiment [6] was at most 10 µM each time.

Regarding `CCCC(C)S(=O)(=O)Nc1cccc(C(=O)c2c[nH]c3ncncc23)c1F` (configuration not stated), the IC50 in experiment [2] and in experiment [3] was at most 10 µM in each case.

For `CC(C)CS(=O)(=O)Nc1ccc(F)c(C(=O)c2c[nH]c3ncncc23)c1F`, the IC50 in experiment [1], in experiment [4] and in experiment [3] was at most 10 µM in each case.

For the compound `O=C(c1cccc(NS(=O)(=O)C2CCCCC2)c1F)c1c[nH]c2ncncc12`, the IC50 in experiment [1], in experiment [4] and in experiment [3] was at most 10 µM each time.

Consider `CCS(=O)(=O)Nc1ccc(F)c(C(=O)c2c[nH]c3ncncc23)c1F`, for which the IC50 in experiment [1] and in experiment [4] was at most 10 µM throughout.

`O=C(c1c(F)ccc(NS(=O)(=O)c2cc(F)ccc2F)c1F)c1c[nH]c2ncncc12`: the half-inhibitory concentration (IC50) in experiment [5], in experiment [4], in experiment [2] and in experiment [3] was at most 10 µM each time.

As for `O=C(c1c(F)ccc(NS(=O)(=O)c2cccc(F)c2)c1F)c1c[nH]c2ncncc12`, the half-maximal inhibitory concentration (IC50) in experiment [5] and in experiment [4] was at most 10 µM in each case.

Consider `COc1ncnc2[nH]cc(C(=O)c3cccc(NS(=O)(=O)c4ccc(C(F)(F)F)cc4)c3F)c12`, for which the IC50 in experiment [5], in experiment [4] and in experiment [2] was at most 10 µM each time.

As for `CCC(C)S(=O)(=O)Nc1cccc(C(=O)c2c[nH]c3ncncc23)c1F` (configuration not stated), the IC50 in experiment [1], in experiment [2] and in experiment [3] was at most 10 µM in each case.

In the case of `CC(C)(C)c1ccc(S(=O)(=O)Nc2ccc(F)c(C(=O)c3c[nH]c4ncncc34)c2F)cc1`, the IC50 in experiment [1], in experiment [4] and in experiment [2] was at most 10 µM each time.

As for `O=C(c1c(F)ccc(NS(=O)(=O)c2ccccc2F)c1F)c1c[nH]c2ncncc12`, the IC50 in experiment [5], in experiment [4] and in experiment [2] was at most 10 µM throughout.

As to `CC(C)c1ccc(S(=O)(=O)Nc2ccc(F)c(C(=O)c3c[nH]c4ncncc34)c2F)cc1`, the IC50 in experiment [7], in experiment [1], in experiment [4] and in experiment [2] was at most 10 µM throughout.

For the compound `O=C(c1c(F)ccc(NS(=O)(=O)C2CCC2)c1F)c1c[nH]c2ncncc12`, the IC50 in experiment [1], in experiment [4] and in experiment [2] was at most 10 µM each time.

With `O=C(c1cccc(NS(=O)(=O)C2CCCC2)c1F)c1c[nH]c2ncncc12`, the IC50 in experiment [1], in experiment [4] and in experiment [2] was at most 10 µM in each case.

`O=C(c1cccc(NS(=O)(=O)c2ccc(C(F)(F)F)cc2)c1F)c1c[nH]c2ncncc12`: the IC50 in experiment [7], in experiment [5] and in experiment [4] was at most 10 µM in each case.

For the compound `CN(C)S(=O)(=O)Nc1cccc(C(=O)c2c[nH]c3ncncc23)c1F`, the IC50 in experiment [1] and in experiment [3] was at most 10 µM in each case.

For the compound `O=C(c1c(F)ccc(NS(=O)(=O)c2cccc(OC(F)F)c2)c1F)c1c[nH]c2ncncc12`, the IC50 in experiment [7], in experiment [1] and in experiment [4] was at most 10 µM in each case.

For the compound `O=C(c1cccc(NS(=O)(=O)c2ccc(F)cc2F)c1F)c1c[nH]c2ncncc12`, the IC50 in experiment [1], in experiment [4] and in experiment [2] was at most 10 µM each time.

Turning to `O=C(c1c(F)ccc(NS(=O)(=O)CC(F)(F)F)c1F)c1c[nH]c2ncncc12`, the IC50 in experiment [1] and in experiment [4] was at most 10 µM each time.

`O=C(c1c(F)ccc(NS(=O)(=O)c2ccccn2)c1F)c1c[nH]c2ncncc12`: the IC50 in experiment [1] and in experiment [4] was at most 10 µM in each case.

`O=S(=O)(Nc1ccc(F)c(C(O)c2c[nH]c3ncnc(C4CC4)c23)c1F)c1ccc(C(F)(F)F)cc1` (configuration not stated) yielded an IC50 in experiment [8] of at most 10 µM.

For the compound `CCCc1ccc(S(=O)(=O)Nc2ccc(F)c(C(=O)c3c[nH]c4ncncc34)c2F)cc1`, the IC50 in experiment [7], in experiment [5] and in experiment [4] was at most 10 µM in each case.

`O=C(c1cccc(NS(=O)(=O)c2cccc(F)c2)c1F)c1c[nH]c2ncncc12`: the IC50 in experiment [5] and in experiment [4] was at most 10 µM throughout.

For the compound `CC(C)S(=O)(=O)Nc1ccc(F)c(C(=O)c2c[nH]c3ncncc23)c1F`, the IC50 in experiment [1] and in experiment [2] was at most 10 µM each time.

In the case of `CCCS(=O)(=O)Nc1cccc(C(=O)c2c[nH]c3ncncc23)c1F`, the IC50 in experiment [7], in experiment [1] and in experiment [4] was at most 10 µM each time.

Regarding `CC(C)CS(=O)(=O)Nc1cccc(C(=O)c2c[nH]c3ncncc23)c1F`, the IC50 in experiment [1] and in experiment [4] was at most 10 µM each time.

With `O=C(c1c(F)ccc(NS(=O)(=O)c2ccc(OC(F)F)cc2)c1F)c1c[nH]c2ncncc12`, the IC50 in experiment [7], in experiment [1] and in experiment [4] was at most 10 µM in each case.

`O=C(c1cccc(NS(=O)(=O)c2ccc(F)cc2)c1F)c1c[nH]c2ncncc12` gave an IC50 in experiment [1] of at most 10 µM.

As to `O=C(c1cccc(NS(=O)(=O)c2ccccc2F)c1F)c1c[nH]c2ncncc12`, the IC50 in experiment [5], in experiment [4], in experiment [2] and in experiment [6] was at most 10 µM throughout.

In the case of `O=C(c1c(F)ccc(NS(=O)(=O)c2ccc(F)cc2)c1F)c1c[nH]c2ncncc12`, the IC50 in experiment [1] and in experiment [4] was at most 10 µM throughout.

Take `COc1ncnc2[nH]cc(C(=O)c3c(F)ccc(NS(=O)(=O)c4ccc(C(F)(F)F)cc4)c3F)c12`: the IC50 in experiment [5], in experiment [4] and in experiment [6] was at most 10 µM throughout.

For `O=C(c1cccc(NS(=O)(=O)c2cccnc2)c1F)c1c[nH]c2ncncc12`, the IC50 in experiment [1] and in experiment [4] was at most 10 µM each time.

With `O=C(c1c(F)ccc(NS(=O)(=O)c2c(F)cccc2F)c1F)c1c[nH]c2ncncc12`, the IC50 in experiment [1], in experiment [4] and in experiment [2] was at most 10 µM each time.

For the compound `O=C(c1c(F)ccc(NS(=O)(=O)CCC(F)(F)F)c1F)c1c[nH]c2ncncc12`, the IC50 in experiment [1], in experiment [4] and in experiment [3] was at most 10 µM throughout.

Take `CCCS(=O)(=O)Nc1cccc(C(=O)c2c[nH]c3ncnc(OC)c23)c1F`: the IC50 in experiment [5], in experiment [4], in experiment [2], in experiment [3] and in experiment [6] was at most 10 µM in each case.

As for `CCC(C)S(=O)(=O)Nc1ccc(F)c(C(=O)c2c[nH]c3ncncc23)c1F` (configuration not stated), the IC50 in experiment [1] and in experiment [4] was at most 10 µM each time.

Turning to `O=C(c1cccc(NS(=O)(=O)N2CCCC2)c1F)c1c[nH]c2ncncc12`, the IC50 in experiment [1] and in experiment [4] was at most 10 µM each time.
